# Measured values reported in patent publication US11925650B2, “Antibacterial chemical compound, its manufacturing method and its use thereof” (National Taiwan University, priority 2022, dated 2024).
# Where two headings read alike, the source gives them in different places.
# Key:
# S. Typhimurium 14028 = assay: Anti-intracellular Salmonella activity in infected RAW264.7 cells (HCA); type: cell-based, Salmonella Typhimurium; settings: for Selectivity ratio (IC50/EC50): IC50 RAW264.7 / EC50 S. Typhimurium 14028
# RAW264.7 = assay: Cytotoxicity in RAW264.7 cells (HCA, MTT cell viability assay); type: cell-based
# [1] = Salmonella enterica, TYPHIMURIUM, RAW264.7, read-out: EC50 (μM) S. Typhimurium 14028, intracellular Salmonella in infected RAW264.7 cells
# [2] = Mus musculus, RAW264.7, read-out: IC50 (μM) RAW264.7
# [3] = Salmonella enterica, TYPHIMURIUM, intracellular Salmonella in infected RAW264.7 cells, read-out: EC50 (μM) S. Typhimurium 14028
# [4] = Mus musculus, cytotoxicity, RAW264.7 cells, read-out: IC50 (μM) RAW264.7
Compound,"EC50 (S. Typhimurium 14028; intracellular Salmonella in infected RAW264.7 cells, read-out: EC50 (μM) S. Typhimurium 14028) [µM]","IC50 (RAW264.7; cytotoxicity, RAW264.7 cells, read-out: IC50 (μM) RAW264.7) [µM]",Selectivity ratio (IC50/EC50) (S. Typhimurium 14028),EC50 (S. Typhimurium 14028; [1]) [µM],IC50 (RAW264.7; [2]) [µM],EC50 (S. Typhimurium 14028; [3]) [µM],IC50 (RAW264.7; [4]) [µM]
"2-chloro-11-(3-(3,4-dichlorophenyl)propyl)dibenzo[b,f][1,4]oxazepine [SW15]",31.1,82.7,–,–,–,–,–
"CN(C)CCNC1=Nc2ccccc2Oc2ccc(Cl)cc21 [SW1, N1-(2-chlorodibenzo[b,f][1,4]oxazepin-11-yl)-N2,N2-dimethylethane-1,2-diamine]",–,–,9.5,3.6,34.6,–,–
"Clc1ccc2c(c1)C(NCCN1CCCC1)=Nc1ccccc1O2 [SW2, 2-chloro-N-(2-(pyrrolidin-1-yl)ethyl)dibenzo[b,f][1,4]oxazepin-11-amine]",–,–,5.4,4.9,26.6,–,–
"Clc1ccc2c(c1)C(NCCN1CCCCC1)=Nc1ccccc1O2 [SW3, 2-chloro-N-(2-(piperidin-1-yl)ethyl)dibenzo[b,f][1,4]oxazepin-11-amine]",–,–,5.1,4.3,22.2,–,–
"Clc1ccc2c(c1)C(NCCN1CCOCC1)=Nc1ccccc1O2 [SW4, 2-chloro-N-(2-morpholinoethyl)dibenzo[b,f][1,4]oxazepin-11-amine]",–,–,2.6,32,84.7,–,–
"Clc1ccc2c(c1)C(NCCc1cccnc1)=Nc1ccccc1O2 [SW5, 2-chloro-N-(2-(pyridin-3-yl)ethyl)dibenzo[b,f][1,4]oxazepin-11-amine]",–,–,1.9,38.2,74,–,–
"CN1CCCC1CCNC1=Nc2ccccc2Oc2ccc(Cl)cc21 (stereo not shown) [SW6, 2-chloro-N-(2-(1-methylpyrrolidin-2-yl)ethyl)dibenzo[b,f][1,4]oxazepin-11-amine]",–,–,18.9,1.2,23,–,–
"Clc1ccc2c(c1)C(NCCc1ccccc1)=Nc1ccccc1O2 [SW7, 2-chloro-N-phenethyldibenzo[b,f][1,4]oxazepin-11-amine]",–,–,2.7,21.2,56.3,–,–
"CCCCCNC1=Nc2ccccc2Oc2ccc(Cl)cc21 [SW8, 2-chloro-N-pentyldibenzo[b,f][1,4]oxazepin-11-amine]",–,–,1.3,54.1,72.7,–,–
"Clc1ccc2c(c1)C(NCc1ccccc1)=Nc1ccccc1O2 [SW9, N-benzyl-2-chlorodibenzo[b,f][1,4]oxazepin-11-amine]",–,–,3.1,19.7,60.8,–,–
"Clc1ccc2c(c1)C(NCC1CC1)=Nc1ccccc1O2 [SW11, 2-chloro-N-(cyclopropylmethyl)dibenzo[b,f][1,4]oxazepin-11-amine]",–,–,1.7,44,74,–,–
"Oc1ccc(CCNC2=Nc3ccccc3Oc3ccc(Cl)cc32)cc1 [SW12, 4-(2-((2-chlorodibenzo[b,f][1,4]oxazepin-11-yl)amino)ethyl)phenol]",–,–,1.6,33.5,52.1,–,–
"CCCNC1=Nc2ccccc2Oc2ccc(Cl)cc21 [SW13, 2-chloro-N-propyldibenzo[b,f][1,4]oxazepin-11-amine]",–,–,2.0,56,112,–,–
"Clc1ccc2c(c1)C(NCCc1ccncc1)=Nc1ccccc1O2 [SW16, 2-chloro-N-(2-(pyridin-4-yl)ethyl)dibenzo[b,f][1,4]oxazepin-11-amine]",–,–,2.8,18.5,51.1,–,–
"CCC(CC)NC1=Nc2ccccc2Oc2ccc(Cl)cc21 [SW17, 2-chloro-N-(pentan-3-yl)dibenzo[b,f][1,4]oxazepin-11-amine]",–,–,2.6,28.5,72.8,–,–
"CC(C)CCNC1=Nc2ccccc2Oc2ccc(Cl)cc21 [SW18, 2-chloro-N-isopentyldibenzo[b,f][1,4]oxazepin-11-amine]",–,–,1.3,55.1,70.1,–,–
"Fc1ccc(CCNC2=Nc3ccccc3Oc3ccc(Cl)cc32)cc1 [SW19, 2-chloro-N-(4-fluorophenethyl)dibenzo[b,f][1,4]oxazepin-11-amine]",–,–,1.8,61.5,112,–,–
"Clc1ccc(CCNC2=Nc3ccccc3Oc3ccc(Cl)cc32)cc1 [SW20, 2-chloro-N-(4-chlorophenethyl)dibenzo[b,f][1,4]oxazepin-11-amine]",–,–,2.0,45.1,91.6,–,–

Compound,"EC50 (S. Typhimurium 14028; intracellular Salmonella in infected RAW264.7 cells, read-out: EC50 (μM) S. Typhimurium 14028) [µM]","IC50 (RAW264.7; cytotoxicity, RAW264.7 cells, read-out: IC50 (μM) RAW264.7) [µM]",Selectivity ratio (IC50/EC50) (S. Typhimurium 14028),EC50 (S. Typhimurium 14028; [1]) [µM],IC50 (RAW264.7; [2]) [µM],EC50 (S. Typhimurium 14028; [3]) [µM],IC50 (RAW264.7; [4]) [µM]
"Clc1ccc2c(c1)C(NCCN1CCCCC1)=Nc1cccnc1N2 [SW21, 8-chloro-N-(2-(piperidin-1-yl)ethyl)-11H-benzo[e]pyrido[3,2-b][1,4]diazepin-6-amine]",–,–,11.0,–,–,5.8,63.6
"Clc1ccc2c(c1)C(NCCCN1CCCC1)=Nc1ccccc1O2 [SW22, 2-chloro-N-(3-(pyrrolidin-1-yl)propyl)dibenzo[b,f][1,4]oxazepin-11-amine]",–,–,14.8,1.1,16.3,–,–
"O=C1CCCN1CCCNC1=Nc2ccccc2Oc2ccc(Cl)cc21 [SW23, 1-(3-((2-chlorodibenzo[b,f][1,4]oxazepin-11-yl)amino)propyl)pyrrolidin-2-one]",–,–,>1.3,> 90,> 90,–,–
"O=C(CNC1=Nc2ccccc2Oc2ccc(Cl)cc21)N1CCCC1 [SW24, 2-((2-chlorodibenzo[b,f][1,4]oxazepin-11-yl)amino)-1-(pyrrolidin-1-yl)ethan-1-one]",–,–,–,> 90,> 90,–,–
"CN1CCCC1CCNC1=Nc2cccnc2Nc2ccc(Cl)cc21 (stereo not shown) [SW25, 8-chloro-N-(2-(1-methylpyrrolidin-2-yl)ethyl)-11H-benzo[e]pyrido[3,2-b][1,4]diazepin-6-amine]",–,–,26.2,–,–,3.3,85.5
"Clc1ccc2c(c1)C(NCCCN1CCCCC1)=Nc1ccccc1O2 [SW26, 2-chloro-N-(3-(piperidin-1-yl)propyl)dibenzo[b,f][1,4]oxazepin-11-amine]",–,–,14.6,1.1,16.1,–,–
"CN(C)CCNC1=Nc2cccnc2Nc2ccc(Cl)cc21 [SW27, N1-(8-chloro-11H-benzo[e]pyrido[3,2-b][1,4]diazepin-6-yl)-N2,N2-dimeth ylethane-1,2-diamine]",–,–,>13.9,–,–,6.5,> 90
"Clc1ccc2c(c1)C(NCCN1CCCC1)=Nc1cccnc1N2 [SW28, 8-chloro-N-(2-(pyrrolidin-1-yl)ethyl)-11H-benzo[e]pyrido[3,2-b][1,4]diazepin-6-amine]",–,–,6.8,–,–,9.3,63.2
"Clc1ccc2c(c1)C(NCCCN1CCCC1)=Nc1cccnc1N2 [SW29, 8-chloro-N-(3-(pyrrolidin-1-yl)propyl)-11H-benzo[e]pyrido[3,2-b][1,4]diazepin-6-amine]",–,–,18.8,–,–,5.3,101
"CN1CCN(CCCNC2=Nc3cccnc3Nc3ccc(Cl)cc32)CC1 [SW31, 8-chloro-N-(3-(4-methylpiperazin-1-yl)propyl)-11H-benzo[e]pyrido[3,2-b][1,4]diazepin-6-amine]",–,–,18.7,–,–,7,129
"Clc1ccc2c(c1)C(NCCCN1CCCCC1)=Nc1cccnc1N2 [SW32, 8-chloro-N-(3-(piperidin-1-yl)propyl)-11H-benzo[e]pyrido[3,2-b][1,4]diazepin-6-amine]",–,–,16.4,–,–,6.4,105
"c1ccc2c(c1)N=C(NCCCN1CCCC1)c1ccccc1N2 [SW33, N-(3-(pyrrolidin-1-yl)propyl)-5H-dibenzo[b,e][1,4]diazepin-11-amine]",–,–,213.4,0.7,143,–,–
"c1ccc2c(c1)N=C(NCCN1CCCCC1)c1ccccc1N2 [SW35, N-(2-(piperidin-1-yl)ethyl)-5H-dibenzo[b,e][1,4]diazepin-11-amine]",–,–,29.3,3.8,111,–,–
"Cc1cc2c(s1)Nc1ccccc1N=C2NCCN1CCCCC1 [SW38, 2-methyl-N-(2-(piperidin-1-yl)ethyl)-10H-benzo[b]thieno[2,3-e][1,4]diazepin-4-amine]",–,–,22.4,1.6,36.5,–,–
"Cc1cc2c(s1)Nc1ccccc1N=C2NCCN(C)C [SW39, N1,N1-dimethyl-N2-(2-methyl-10H-benzo[b]thieno[2,3-e][1,4]diazepin-4-yl)ethane-1,2-diamine]",–,–,72.5,1.7,122,–,–
"Cc1cc2c(s1)Nc1ccccc1N=C2NCCN1CCNCC1 [SW41, 2-methyl-N-(2-(piperazin-1-yl)ethyl)-10H-benzo[b]thieno[2,3-e][1,4]diazepin-4-amine]",–,–,26.8,3.9,105,–,–
"Cc1cc2c(s1)Nc1ccccc1N=C2NCCCN1CCCC1 [SW42, 2-methyl-N-(3-(pyrrolidin-1-yl)propyl)-10H-benzo[b]thieno[2,3-e][1,4]diazepin-4-amine]",–,–,82.6,0.9,76.4,–,–
"Cc1cc2c(s1)Nc1ccccc1N=C2NCCCN(C)C [SW43, N1,N1-dimethyl-N3-(2-methyl-10H-benzo[b]thieno[2,3-e][1,4]diazepin-4-yl)propane-1,3-diamine]",–,–,82.1,1.2,102,–,–
